Data as given in the supplement of paper PMC10307832.

Legend:
Assay in all cases: relative viability (nuclei count vs DMSO), 5 days (fraction); higher = more cells survive
[1] = compound: C1=CC2=C(C=C(C(=C2N=C1)O)N=NC3=CC4=C(C=C3)C=C(C=C4)S(=O)(=O)O)S(=O)(=O)O + COc1cccc2cc(-c3nc([C@H]4CC[C@H](C(=O)O)CC4)n4ncnc(N)c34)[nH]c12 [OSI-027] (partner 0.5 µM)
Procedure, shortened: (§1)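 After 5 days of treatment, lung cancer cells in 1536-well plates were fixed and stained in a single step (final 0.05% Triton X-100, 1% formaldehyde, 1 ug/ml Hoechst) and their nuclei counted on 4× images. Treatment had been applied by pin tool the day after seeding as one drug alone or as a fixed anchor-drug dose with five library-drug doses (not always all listed) in √10 steps. Relative viability is the nuclei count of treated wells divided by that of vehicle wells, and values are medians of duplicate plates.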

AT-7519 + Alpelisib = compound: O=C(NC1CCNCC1)c1n[nH]cc1NC(=O)c1c(Cl)cccc1Cl [AT-7519] + Cc1nc(NC(=O)N2CCC[C@H]2C(N)=O)sc1-c1ccnc(C(C)(C)C(F)(F)F)c1 [Alpelisib] (partner 2 µM)
Procedure, shortened: as §1

[2] = compound: C1=CC2=C(C=C(C(=C2N=C1)O)N=NC3=CC4=C(C=C3)C=C(C=C4)S(=O)(=O)O)S(=O)(=O)O + NC(=O)Nc1cc(-c2cccc(F)c2)sc1C(=O)N[C@H]1CCCNC1 [AZD7762] (partner 0.2 µM)
Procedure, shortened: as §1

[3] = compound: C1=CC2=C(C=C(C(=C2N=C1)O)N=NC3=CC4=C(C=C3)C=C(C=C4)S(=O)(=O)O)S(=O)(=O)O + Cc1cc(Nc2cc(N3CCN(C)CC3)nc(Sc3ccc(NC(=O)C4CC4)cc3)n2)n[nH]1 [Tozasertib] (partner 0.1 µM)
Procedure, shortened: as §1

Cell Line | relative viability ([1]; first compound 0.08 µM) | relative viability ([1]; first compound 0.253 µM) | relative viability ([1]; first compound 0.8 µM) | relative viability ([1]; first compound 2.53 µM) | relative viability ([1]; first compound 8 µM) | relative viability (AT-7519 + Alpelisib; first compound 0.01 µM) | relative viability (AT-7519 + Alpelisib; first compound 0.03162 µM) | relative viability (AT-7519 + Alpelisib; first compound 0.3162 µM) | relative viability (AT-7519 + Alpelisib; first compound 1 µM) | relative viability ([2]; first compound 0.08 µM) | relative viability ([2]; first compound 0.253 µM) | relative viability ([2]; first compound 0.8 µM) | relative viability ([2]; first compound 2.53 µM) | relative viability ([2]; first compound 8 µM) | relative viability ([3]; first compound 0.08 µM) | relative viability ([3]; first compound 0.253 µM) | relative viability ([3]; first compound 0.8 µM) | relative viability ([3]; first compound 2.53 µM) | relative viability ([3]; first compound 8 µM)
NCI-H3122 | 1.09 | 0.919 | 0.899 | 0.856 | 0.922 | 0.827 | 0.699 | 0.813 | 0.263 | 0.967 | 0.976 | 0.975 | 1.03 | 0.962 | 0.371 | 0.37 | 0.405 | 0.514 | 0.378
NCI-H1975 | 0.784 | 0.721 | 0.767 | 0.68 | 0.784 | 0.63 | 0.658 | 0.381 | 0.152 | 0.715 | 0.69 | 0.671 | 0.748 | 0.702 | 0.772 | 0.753 | 0.754 | 0.736 | 0.686
NCI-H1944 | 0.411 | 0.423 | 0.414 | 0.415 | 0.425 | 0.86 | 0.787 | 0.799 | 0.74 | 0.643 | 0.647 | 0.746 | 0.519 | 0.464 | 0.263 | 0.241 | 0.263 | 0.241 | 0.237
LU99A | 0.311 | 0.301 | 0.35 | 0.292 | 0.296 | 0.612 | 0.435 | 0.478 | 0.42 | 0.433 | 0.376 | 0.421 | 0.35 | 0.37 | 0.289 | 0.267 | 0.272 | 0.323 | 0.273
SW 1573 | 0.734 | 0.622 | 0.61 | 0.463 | 0.401 | 0.802 | 0.739 | 0.743 | 0.394 | – | – | – | – | – | 0.164 | 0.185 | 0.187 | 0.181 | 0.0943
NCI-H2347 | 0.505 | 0.532 | 0.5 | 0.341 | 0.392 | 1.2 | 0.952 | 1.08 | 0.771 | 0.838 | 0.734 | 0.846 | 1.01 | 0.705 | 0.59 | 0.57 | 0.52 | 0.741 | 0.573
NCI-H2009 | 0.574 | 0.6 | 0.645 | 0.642 | 0.71 | 1.14 | 1.12 | 1.15 | 0.668 | – | – | – | – | – | 0.766 | 0.756 | 0.741 | 0.842 | 0.562
HCC-15 | 0.75 | 0.675 | 0.627 | 0.63 | 0.65 | 0.959 | 0.905 | 0.763 | 0.406 | 1.32 | 1.25 | 1.23 | 1.18 | 1.15 | 0.462 | 0.458 | 0.422 | 0.441 | 0.45
HCC-44 | – | 0.651 | 0.5 | 0.55 | 0.601 | 0.835 | 0.835 | 0.769 | 0.572 | 1.01 | 1.03 | 0.997 | 1.05 | 1.04 | – | 0.853 | 0.999 | 1.03 | 0.873
COR-L23 | 0.884 | 0.781 | 0.725 | 0.612 | 0.802 | 0.987 | 0.746 | 0.348 | 0.119 | – | – | – | – | – | 0.22 | 0.173 | 0.247 | 0.197 | 0.233
NCI-H1299 | – | – | – | – | – | 1.1 | 1.08 | 1.17 | 1.15 | – | – | – | – | – | – | – | – | – | –
NCI-H1650 | 0.718 | 0.542 | 0.667 | 0.651 | 0.65 | – | – | – | – | – | – | – | – | – | 0.4 | 0.347 | 0.45 | 0.407 | 0.231
COR-L 105 | 0.657 | 0.576 | 0.788 | 0.635 | 0.722 | 1.13 | 0.996 | 0.927 | 0.507 | – | – | – | – | – | 0.355 | 0.37 | 0.367 | 0.361 | 0.378
ChaGo-K-1 | 0.641 | 0.555 | 0.519 | 0.556 | 0.382 | – | – | – | – | 0.933 | 0.82 | 0.845 | 0.892 | 0.721 | 0.238 | 0.198 | 0.205 | 0.205 | 0.244
NCI-H2228 | 0.765 | 0.688 | 0.653 | 0.57 | 0.592 | 0.972 | 0.821 | 0.584 | 0.415 | – | – | – | – | – | 0.264 | 0.269 | 0.279 | 0.233 | 0.295
SW 900 | 0.55 | 0.554 | 0.608 | 0.517 | 0.424 | – | – | – | – | 0.597 | 0.644 | 0.598 | 0.588 | 0.666 | 0.566 | 0.559 | 0.536 | 0.599 | 0.469
NCI-H661 | 0.789 | 0.736 | 0.703 | 0.683 | 0.687 | 0.488 | 0.445 | 0.758 | 0.506 | – | – | – | – | – | 0.333 | 0.347 | 0.341 | 0.369 | 0.343
NCI-H1563 | 0.786 | 0.732 | 0.818 | 0.77 | 0.727 | 0.868 | 0.942 | 0.942 | 0.781 | – | – | – | – | – | – | – | – | – | –
A549 | – | – | – | – | – | 0.882 | 0.708 | 0.69 | 0.322 | – | – | – | – | – | – | – | – | – | –
NCI-H2342 | 0.529 | 0.657 | 0.603 | 0.563 | 0.674 | – | – | – | – | 0.603 | 0.541 | 0.463 | 0.462 | 0.582 | 0.52 | 0.576 | 0.566 | 0.465 | 0.569
NCI-H1623 | 0.466 | 0.391 | 0.419 | 0.468 | 0.438 | – | – | – | – | – | – | – | – | – | 0.432 | 0.416 | 0.458 | 0.506 | 0.428
NCI-H522 | 0.683 | 0.623 | 0.565 | 0.724 | 0.592 | – | – | – | – | 0.783 | 0.932 | 0.971 | 0.787 | 0.714 | 0.583 | 0.556 | 0.609 | 0.539 | 0.631
IA-LM | – | – | – | – | – | 0.904 | 0.617 | 0.779 | 0.488 | – | – | – | – | – | – | – | – | – | –
EBC-1 | – | – | – | – | – | 0.863 | 0.835 | 0.734 | 0.55 | – | – | – | – | – | – | – | – | – | –
